# In patent US10683282B2, “Multi-substituted pyrimidine derivatives with excellent kinase inhibitory activities” (KOREA INSTITUTE OF SCIENCE AND TECHNOLOGY, priority 2018, dated 2020):
# pIC50: −log10 of the molar value.
# Experiments:
# [1] = system: Ba/F3 FLT3-ITD; assay: Ba/F3 FLT3-ITD growth inhibition; format: cell-based; conditions: Ba/F3 FLT3-ITD cells
# [2] = system: CHO-K1; assay: Cytotoxicity test (cell counting kit-8); format: cell-based, Chinese hamster; conditions: Cricetulus griseus, WST-8
# Source text: (§1) Cell counting kit-8 assay is a general test method for identifying cell viability using a pale yellow tetrazolium salt called “WST-8”. WST-8, which is soluble in water, is degraded by a dehydrogenase present in the cells, forming orange formazan. Formazan dye is formed by dehydrogenase activity proportional to the number of viable cells, and thus can be used as an indicator for cell viability. The Hill equation of Graphpad Prism was used for analysis.
# [3] = Cytotoxicity test (cell counting kit-8), summary over respective cells; format: cell-based; conditions: African green monkey, human, mouse, Chinese hamster, NIH3T3 and CHO-K1 cells; criterion 10 μM; VERO, HFL-1, L929, NIH3T3, CHO-K1
# Source text: as §1
# [4] = system: VERO; assay: Cytotoxicity test (cell counting kit-8); format: cell-based, African green monkey; conditions: Chlorocebus sabaeus, WST-8
# Source text: as §1
# [5] = system: Ba/F3 parental; assay: Ba/F3 parental growth inhibition; format: cell-based; conditions: Mus musculus, BaF3; Ba/F3 parental cells
# [6] = target: T1, FLT3 (D835Y) (Homo sapiens, UniProt P36888, D835Y); assay: FLT3 mutant enzyme activity, HotSpot assay; format: biochemical; conditions: ATP 10 μM
# T1 construct: purchased Reaction Biology Corporation
# Experimental: (§2) Kinase screening was performed using a “HotSpot” assay platform method by Reaction Biology Corporation. The reaction buffer used herein contained 20 mM HEPES (pH 7.5), 10 mM MgCl2, 1 mM EGTA, 0.02% Brij35, 0.02 mg/mL BSA, 0.1 mM Na3VO4, 2 mM DTT and 1% DMSO. The required cofactors were added in accordance with the kinase reaction. Freshly made buffer and cofactors were added at a concentration of 20 μM during the selected enzyme reaction. A solution of the test compound in dimethylsulfoxide (DMSO) was added at a suitable concentration to this solution. In order to initiate reaction, […] (specific activity […]) was added and incubated at room temperature for 2 hours. The test compound was screened at a starting concentration of 20 μM in a 10-dose IC50 mode. IC50 of Staurosporine used as a control drug was obtained at a starting concentration of 20 μM in a 10-dose IC50 mode.
# [7] = target: FLT3 (ITD) (Homo sapiens, UniProt P36888); assay: FLT3 mutant enzyme activity, HotSpot assay; format: biochemical; conditions: ATP 10 μM
# Experimental: as §2
# [8] = target: FLT3 (ITD)-NPOS (Homo sapiens, UniProt P36888); assay: FLT3 mutant enzyme activity, HotSpot assay; format: biochemical; conditions: ATP 10 μM
# Experimental: as §2
# [9] = system: L929; assay: Cytotoxicity test (cell counting kit-8); format: cell-based; conditions: Mus musculus, WST-8
# Source text: as §1
# [10] = system: NIH3T3; assay: Cytotoxicity test (cell counting kit-8); format: cell-based; conditions: Mus musculus, WST-8
# Source text: as §1
# [11] = system: HFL-1; assay: Cytotoxicity test (cell counting kit-8); format: cell-based; conditions: Homo sapiens, HFL1, WST-8
# Source text: as §1
# [12] = target: T2, JAK2(V617F) (Homo sapiens, UniProt O60674, V617F); assay: Kinase screening, HotSpot assay (Reaction Biology); format: biochemical
# T2 construct: purchased Reaction Biology Corporation
# Experimental: as §2
# [13] = target: T3, ACK1 (Homo sapiens, UniProt Q07912); assay: Kinase screening, HotSpot assay (Reaction Biology); format: biochemical
# T3 construct: purchased Reaction Biology Corporation
# Experimental: as §2
# [14] = target: T4, JAK1 (Homo sapiens, UniProt P23458); assay: Kinase screening, HotSpot assay (Reaction Biology); format: biochemical
# T4 construct: purchased Reaction Biology Corporation
# Experimental: as §2
# [15] = target: T5, ARK5/NUAK1 (Homo sapiens, UniProt O60285); assay: Kinase screening, HotSpot assay (Reaction Biology); format: biochemical
# T5 construct: purchased Reaction Biology Corporation
# T5 sequence (O60285 1-661): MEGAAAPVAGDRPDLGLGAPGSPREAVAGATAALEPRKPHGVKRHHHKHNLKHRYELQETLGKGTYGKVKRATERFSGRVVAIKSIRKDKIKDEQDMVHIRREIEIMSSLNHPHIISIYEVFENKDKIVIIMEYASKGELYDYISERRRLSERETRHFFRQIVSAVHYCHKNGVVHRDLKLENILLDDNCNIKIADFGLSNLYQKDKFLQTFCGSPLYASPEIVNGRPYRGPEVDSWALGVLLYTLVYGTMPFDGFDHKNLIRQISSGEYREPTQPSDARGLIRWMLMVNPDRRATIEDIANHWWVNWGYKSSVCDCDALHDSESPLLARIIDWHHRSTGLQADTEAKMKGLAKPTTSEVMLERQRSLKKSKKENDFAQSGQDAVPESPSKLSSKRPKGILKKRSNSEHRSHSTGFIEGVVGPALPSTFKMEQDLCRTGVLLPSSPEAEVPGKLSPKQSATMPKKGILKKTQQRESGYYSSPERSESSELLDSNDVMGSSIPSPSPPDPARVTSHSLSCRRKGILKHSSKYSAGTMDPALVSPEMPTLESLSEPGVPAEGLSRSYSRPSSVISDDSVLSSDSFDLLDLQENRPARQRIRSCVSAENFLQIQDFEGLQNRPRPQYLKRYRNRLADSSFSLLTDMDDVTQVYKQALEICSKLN
# Experimental: as §2
# [16] = target: CYP 3A4 (Homo sapiens, UniProt P08684); assay: CYP450 assay (luminescence); format: in vitro ADME; conditions: CYP 3A4 enzyme with substrate, compound at 10 μM, read-out: inhibitory activity against human CYP 3A4
# Experimental: (§3) Compound 5 and a positive control stock solution were diluted with water to prepare a 40 μM working solution, and a solution containing an enzyme and a substrate was prepared using water and buffer. Compound 5/control/positive control and the solution were each dispensed on a 96-well and preincubated at 37° C. for 10 minutes. The resulting substance was reacted with NADPH for 20 minutes at 37° C. and a detection reagent was added to terminate the reaction. After stabilization at room temperature for 20 minutes, a luminescence signal was measured.
# [17] = target: CYP 1A2 (Homo sapiens, UniProt P05177); assay: CYP450 assay (luminescence); format: in vitro ADME; conditions: human, CYP 1A2 enzyme with substrate; compound at 10 μM; read-out: inhibitory activity against human CYP 1A2
# Experimental: as §3
# T2 sequence (O60674 whole entry V617F): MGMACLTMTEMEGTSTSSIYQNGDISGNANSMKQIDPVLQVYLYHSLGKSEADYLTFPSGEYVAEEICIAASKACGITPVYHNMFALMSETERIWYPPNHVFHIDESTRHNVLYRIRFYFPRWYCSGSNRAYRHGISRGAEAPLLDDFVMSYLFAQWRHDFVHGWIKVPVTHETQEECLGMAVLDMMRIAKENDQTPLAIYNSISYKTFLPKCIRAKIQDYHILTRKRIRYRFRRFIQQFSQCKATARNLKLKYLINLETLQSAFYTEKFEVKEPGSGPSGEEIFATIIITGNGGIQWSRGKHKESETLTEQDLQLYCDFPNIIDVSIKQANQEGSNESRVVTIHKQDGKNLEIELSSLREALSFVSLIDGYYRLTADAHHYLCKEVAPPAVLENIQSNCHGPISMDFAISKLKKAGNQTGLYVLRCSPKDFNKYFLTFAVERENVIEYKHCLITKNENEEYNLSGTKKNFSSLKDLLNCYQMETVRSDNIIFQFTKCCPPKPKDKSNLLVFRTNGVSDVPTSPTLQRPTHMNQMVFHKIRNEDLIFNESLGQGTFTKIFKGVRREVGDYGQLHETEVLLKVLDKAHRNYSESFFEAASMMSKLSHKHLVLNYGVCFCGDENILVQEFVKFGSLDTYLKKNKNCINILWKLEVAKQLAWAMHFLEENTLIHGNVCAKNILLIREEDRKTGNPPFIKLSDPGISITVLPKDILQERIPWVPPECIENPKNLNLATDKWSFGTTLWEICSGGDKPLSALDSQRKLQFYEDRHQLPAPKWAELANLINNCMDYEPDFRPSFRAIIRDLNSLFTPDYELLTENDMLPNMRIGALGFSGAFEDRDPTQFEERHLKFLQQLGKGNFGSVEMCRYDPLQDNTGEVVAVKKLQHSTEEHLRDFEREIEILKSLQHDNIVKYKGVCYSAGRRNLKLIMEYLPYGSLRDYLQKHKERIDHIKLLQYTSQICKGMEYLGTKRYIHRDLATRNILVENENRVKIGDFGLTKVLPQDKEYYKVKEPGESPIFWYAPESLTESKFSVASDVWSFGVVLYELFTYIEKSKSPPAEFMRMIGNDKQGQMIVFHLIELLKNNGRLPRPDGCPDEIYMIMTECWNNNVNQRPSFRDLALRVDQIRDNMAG
# T3 sequence (Q07912 whole entry): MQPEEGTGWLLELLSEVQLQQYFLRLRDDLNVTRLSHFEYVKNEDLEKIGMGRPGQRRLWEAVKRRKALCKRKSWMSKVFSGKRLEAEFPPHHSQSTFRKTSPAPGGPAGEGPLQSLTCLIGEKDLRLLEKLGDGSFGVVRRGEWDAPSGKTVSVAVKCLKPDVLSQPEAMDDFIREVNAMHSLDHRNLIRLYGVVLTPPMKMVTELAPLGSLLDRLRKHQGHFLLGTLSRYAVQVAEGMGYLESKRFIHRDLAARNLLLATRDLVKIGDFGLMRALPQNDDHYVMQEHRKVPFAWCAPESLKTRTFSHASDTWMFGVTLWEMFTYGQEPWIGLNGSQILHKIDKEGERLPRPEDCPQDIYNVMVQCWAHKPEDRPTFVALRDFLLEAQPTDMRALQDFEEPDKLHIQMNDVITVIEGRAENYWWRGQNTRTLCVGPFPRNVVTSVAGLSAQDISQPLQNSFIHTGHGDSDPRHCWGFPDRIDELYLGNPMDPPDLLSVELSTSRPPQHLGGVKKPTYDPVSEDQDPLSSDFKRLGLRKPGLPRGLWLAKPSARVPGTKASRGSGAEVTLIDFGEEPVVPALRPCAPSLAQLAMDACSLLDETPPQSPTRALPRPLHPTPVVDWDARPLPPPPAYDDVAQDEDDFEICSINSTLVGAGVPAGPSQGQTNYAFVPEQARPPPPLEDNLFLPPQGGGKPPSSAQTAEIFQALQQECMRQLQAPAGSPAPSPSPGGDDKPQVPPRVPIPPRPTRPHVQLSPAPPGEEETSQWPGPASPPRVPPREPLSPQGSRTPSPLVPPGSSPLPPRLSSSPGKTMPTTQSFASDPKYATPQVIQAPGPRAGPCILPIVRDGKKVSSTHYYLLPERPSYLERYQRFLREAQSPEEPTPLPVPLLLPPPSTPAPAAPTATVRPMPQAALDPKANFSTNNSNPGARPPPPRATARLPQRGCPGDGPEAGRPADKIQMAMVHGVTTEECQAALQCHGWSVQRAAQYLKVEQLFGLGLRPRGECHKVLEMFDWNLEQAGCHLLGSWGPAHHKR
# Sequence of CYP 1A2 (P05177 whole entry): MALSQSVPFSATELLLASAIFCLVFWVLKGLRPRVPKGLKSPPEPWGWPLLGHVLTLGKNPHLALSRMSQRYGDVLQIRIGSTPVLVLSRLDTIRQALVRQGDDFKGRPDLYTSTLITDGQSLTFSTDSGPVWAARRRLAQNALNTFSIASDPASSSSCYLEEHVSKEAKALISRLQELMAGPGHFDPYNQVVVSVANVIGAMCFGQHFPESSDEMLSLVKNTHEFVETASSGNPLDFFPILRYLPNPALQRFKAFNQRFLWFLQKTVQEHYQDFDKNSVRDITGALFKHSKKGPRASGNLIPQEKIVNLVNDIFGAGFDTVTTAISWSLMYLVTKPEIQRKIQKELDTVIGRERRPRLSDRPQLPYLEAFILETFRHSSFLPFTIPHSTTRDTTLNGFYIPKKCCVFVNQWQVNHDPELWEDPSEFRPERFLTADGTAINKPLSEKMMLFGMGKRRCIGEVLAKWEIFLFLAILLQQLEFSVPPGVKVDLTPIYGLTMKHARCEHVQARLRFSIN
# T4 sequence (P23458 whole entry): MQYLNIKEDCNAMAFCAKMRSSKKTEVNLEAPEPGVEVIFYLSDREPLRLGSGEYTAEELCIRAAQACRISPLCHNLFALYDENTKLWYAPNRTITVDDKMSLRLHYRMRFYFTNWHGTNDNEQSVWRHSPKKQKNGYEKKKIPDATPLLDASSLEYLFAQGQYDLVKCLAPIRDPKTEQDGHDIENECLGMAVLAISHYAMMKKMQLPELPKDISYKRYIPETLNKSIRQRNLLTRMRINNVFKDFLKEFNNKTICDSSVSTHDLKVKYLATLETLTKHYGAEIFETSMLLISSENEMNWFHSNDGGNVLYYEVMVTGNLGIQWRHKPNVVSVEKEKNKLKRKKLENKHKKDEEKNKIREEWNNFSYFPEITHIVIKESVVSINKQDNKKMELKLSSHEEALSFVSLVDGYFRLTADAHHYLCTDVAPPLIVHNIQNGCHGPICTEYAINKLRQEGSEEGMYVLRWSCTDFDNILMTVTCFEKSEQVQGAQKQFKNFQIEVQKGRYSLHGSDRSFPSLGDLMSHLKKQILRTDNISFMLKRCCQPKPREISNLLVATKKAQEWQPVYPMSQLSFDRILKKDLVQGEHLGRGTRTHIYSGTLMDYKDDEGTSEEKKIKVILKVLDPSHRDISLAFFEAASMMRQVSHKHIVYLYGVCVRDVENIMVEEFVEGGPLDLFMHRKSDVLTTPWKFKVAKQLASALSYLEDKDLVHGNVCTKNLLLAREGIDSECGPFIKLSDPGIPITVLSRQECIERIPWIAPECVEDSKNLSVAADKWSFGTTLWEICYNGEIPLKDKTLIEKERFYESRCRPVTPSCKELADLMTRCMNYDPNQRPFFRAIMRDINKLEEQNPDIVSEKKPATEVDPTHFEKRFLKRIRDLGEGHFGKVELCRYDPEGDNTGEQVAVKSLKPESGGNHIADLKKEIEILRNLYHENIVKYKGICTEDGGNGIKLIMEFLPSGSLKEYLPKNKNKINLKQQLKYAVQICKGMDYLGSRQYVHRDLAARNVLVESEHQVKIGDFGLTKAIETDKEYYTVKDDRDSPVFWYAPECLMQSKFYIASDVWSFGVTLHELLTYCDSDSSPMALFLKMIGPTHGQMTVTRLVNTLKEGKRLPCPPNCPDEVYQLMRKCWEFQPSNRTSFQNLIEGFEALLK
# Sequence of CYP 3A4 (P08684 whole entry): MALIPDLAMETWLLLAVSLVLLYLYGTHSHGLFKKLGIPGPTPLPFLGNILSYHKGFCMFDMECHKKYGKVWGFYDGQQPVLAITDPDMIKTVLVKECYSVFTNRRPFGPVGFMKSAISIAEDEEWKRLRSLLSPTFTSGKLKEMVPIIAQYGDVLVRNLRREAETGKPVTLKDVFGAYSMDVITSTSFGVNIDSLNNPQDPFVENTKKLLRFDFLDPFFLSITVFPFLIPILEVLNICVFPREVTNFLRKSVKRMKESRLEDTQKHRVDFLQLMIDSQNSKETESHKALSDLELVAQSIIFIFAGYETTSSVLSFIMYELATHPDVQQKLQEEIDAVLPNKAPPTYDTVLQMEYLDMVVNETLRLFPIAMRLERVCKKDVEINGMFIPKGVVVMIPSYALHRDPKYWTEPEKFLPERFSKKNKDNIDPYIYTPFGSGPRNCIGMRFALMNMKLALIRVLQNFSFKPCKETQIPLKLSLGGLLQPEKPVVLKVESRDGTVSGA
smiles,measurement,setting,value
"Clc1cnc(Nc2ccc(OCCN3CCCC3)cc2)nc1NCc1ccco1 [Compound 5, 5-chloro-4-(furan-2-yl)methylamino-2-[4-{2-(pyrrolidin-1-yl)ethoxy}phenylamino]pyrimidine]",GI50,[1],42 nM
same,IC50,[2],> 100 µM
same,pIC50,[3],≤ 5.00
same,IC50,[4],19.7 µM
same,GI50,[5],1820 nM
same,pIC50,[6],> 9.00
same,pIC50,[7],8.82
same,pIC50,[8],8.35
same,IC50,[9],40.3 µM
same,IC50,[10],> 100 µM
same,IC50,[11],35.6 µM
same,pIC50,[12],7.59
same,pIC50,[13],7.29
same,pIC50,[14],7.79
same,pIC50,[15],8.62
same,"inhibition at 20 min, 10 µM",[16],22.1%
same,"inhibition at 20 min, 10 µM",[17],1.93%
